Results reported in ChEMBL document CHEMBL1125975, “Enzymic and nonenzymic lipid peroxidation: inhibition by substituted phenoxazines” (Bioorg Med Chem Lett, 1991).
In brackets after ≈: the same amount, converted by molar mass.

Species on record: Oryctolagus cuniculus
Experiment: Minimum concentration of compound was evaluated for inhibiting iron-dependent lipid peroxidation of rabbit brain homogenate in vitro
Assay type: functional

Row | Structure (SMILES) | MIC
1 | O=C(O)c1cccc2c1Nc1ccccc1O2 | 4.4 µM (≈ 1 µg/mL)
2 | CN(O)C(=O)c1ccc2c(c1)Nc1ccccc1O2 | 0.65 µM (≈ 0.167 µg/mL)
3 | COC(=O)c1cccc2c1Nc1ccccc1O2 | 4.2 µM (≈ 1.01 µg/mL)
4 | O=C(O)/C=C/c1ccc2c(c1)Nc1ccccc1O2 | 0.12 µM (≈ 0.0304 µg/mL)
5 | CCOC(=O)/C=C/c1ccc2c(c1)Nc1ccccc1O2 | 0.19 µM (≈ 0.0534 µg/mL)
6 | COc1ccc2c(c1C(=O)NO)Nc1ccccc1O2 | 3.7 µM (≈ 1.01 µg/mL)
7 | c1ccc2c(c1)Nc1ccccc1O2 [PHENOXAZINE] | 0.055 µM (≈ 0.0101 µg/mL)
8 | O=C(O)c1ccc2c(c1)Nc1ccccc1O2 | 0.44 µM (≈ 0.1 µg/mL)
9 | COC(=O)c1ccc2c(c1)Nc1ccccc1O2 | 0.22 µM (≈ 0.0531 µg/mL)
10 | O=C(NO)c1ccc2c(c1)Nc1ccccc1O2 | 0.41 µM (≈ 0.0993 µg/mL)
11 | COc1ccc2c(c1C(=O)O)Nc1ccccc1O2 | 9.1 µM (≈ 2.34 µg/mL)
12 | CN(O)C(=O)/C=C/c1ccc2c(c1)Nc1ccccc1O2 | 0.35 µM (≈ 0.0988 µg/mL)
